Experimental data from patent US4168206A, “Impregnated disk method for testing antifungal susceptibility” (Philadelphia College of Osteopathic Medicine, priority 1977, dated 1979).

Assays:
[1] = cited from earlier work
Geotrichum candidum [2] = experiment: MIC by impregnated disk method, Geotrichum candidum; assay type: cell-based; conditions: disk method
Protocol: (§1) Stock solutions of the antifungal agents to be tested are preferably prepared by diluting the antifungal agents in the proper nutrient medium. It is presently preferred to prepare dilutions in 10 ml of the proper medium to give the following final concentrations when applied to the disks (all quantities in micrograms per milliliter): 0.05, 0.08, 0.09, 0.1; 0.1 increment increases to 0.9, 1.0; 0.5 increment increases to 10.0; and 12.0, 14.0, 20.0, 25.0 and 50.0. Disks have been prepared by placing 0.05 ml of the above dilutions of antifungal agent containing medium on 6.5 mm diameter disks in 0.01 or 0.02 ml increments. The impregnated disks are then allowed to dry at a temperature preferably below about 10° C. […] The disks may also be dried by a lyophilization or freeze drying process.
(§2) To perform the tests in accordance with the present inventions, disks impregnated with various concentrations of antifungal agent and nutrient medium and a control disk impregnated only with the corresponding nutrient medium are placed on the fungus to be tested which has been applied to the non-nutrient medium. The disks are the inoculated non-nutrient medium are then incubated at a suitable temperature for a sufficient time to promote growth of the fungus. Any temperature is suitable if it will promote growth of the fungus without adversely affecting the fungus or the activity of the antifungal agent or agents tested. The time of incubation can be determined by observing the extent of growth around the control disk. […] The zones of growth or inhibition around the disks were read at 6, 12, 24, 36 and 48 hours after the disks were placed on the tested fungus.
(§3) The minimum inhibitory concentration is defined as the lowest concentration of antifungal agent which inhibits visible growth. […]
(§4) Several test disks and a control disk were placed in each petri dish containing the inoculated agar. The disks and petri dishes were then incubated at 29° C. and the minimum inhibitory concentration of the various concentrations of the antifungal agents were read at 6, 12, 24, 36 and 48 hours. […]

Cryptococcus neoformans [3] = experiment: MIC by broth dilution method, Cryptococcus neoformans; assay type: cell-based
Excerpt: (§5) The preparation of the nutrient media, the antifungal agents and the fungi to be tested in the present invention are similar to those reported in S. Shadomy and A. Espinel-Ingroff, "Susceptibility Testing Of Antifungal Agents", Ch. 63, pp. 569-574 in E. H. Lennett, E. H. Spaulding, and J. P. Truant, Eds., Manual Of Clinical Microbiology, 2nd Ed., American Society for Microbiology, Washington, D.C. (1974). This publication describes the susceptibility testing of antifungal agents, namely, amphotericin B, nystatin and 5-fluoro-cytosine (5-FC), by the "broth dilution method" and the "semisolid agar dilution method". At pages 570-571, it is stated:
(§6) In 10 duplicate runs with each strain tested, the variation in minimum inhibitory concentration averaged ±0.05 μg/ml.
(§7) *Broth dilution method conducted in accordance with S. Shadomy and E.
(§8) Espinel-Ingroff, "Susceptibility Testing of Antifungal Agents", Ch. 63,
(§9) pp. 569-574 in E. H. Spaulding and J. P. Truant, Eds., Manual Of Clinical
(§10) Microbiology, 2nd Ed., American Society for Microbiology, Washington, […]

Torulopsis glabrata [4] = experiment: MIC by impregnated disk method, Torulopsis glabrata; assay type: cell-based; conditions: Torulopsis glabrata; disk method
Protocol: as §1, §2, §3, §4

Saccharomyces cerevisiae [5] = experiment: MIC by impregnated disk method, Saccharomyces cerevisiae; assay type: cell-based
Protocol: as §1, §2
(§11) The minimum inhibitory concentration is defined as the lowest concentration of antifungal agent which inhibits visible growth. The disks containing concentrations of antifungal agents below the minimum inhibitory concentration show circumscribed growth of the fungus around the disk. Disks containing concentrations of antifungal agent at or above the minimum inhibitory concentration show no circumscribed growth.
(§12) Clinical isolates of various fungi listed in Table 1 were obtained from different patients diagnosed as having fungal infections. The fungal inocula were prepared by using a 24-48 hour cultures grown in yeast nitrogen base containing 1% glucose and 0.15% asparagine. After centrifuging, the supernatant was removed, the sedimented cells were washed twice with sterile distilled water and a cell suspension was adjusted to 80% transmission at 520 nm using a Beckman DB-GT grating spectrophotometer.
(§13) Sterile liquified 2% purified agar was placed in petri dishes and allowed to harden. The surface of the agar was inoculated with a sterile cotton swab saturated with a suspension of an organism. The uniformly swabbed plates were then allowed to dry.
(§14) Disks were prepared using the dilutions described above for amphotericin B, nystatin and 5-fluorocytosine. 0.05 ml of the dilutions of each antifungal agent diluted with the appropriate nutrient medium were pipetted on 6.5 mm diameter disks. The disks were dried at 4° C. after each application. Control disks were also prepared.
(§15) Several test disks and a control disk were placed in each petri dish containing the inoculated agar. The disks and petri dishes were then incubated at 29° C. and the minimum inhibitory concentration of the various concentrations of the antifungal agents were read at 6, 12, 24, 36 and 48 hours.
as §6

C. parapsilosis [6] = experiment: MIC by broth dilution method, Candida parapsilosis; assay type: cell-based
Excerpt: as §5, §6, §7, §8, §9, §10

Torulopsis glabrata [7] = experiment: MIC by broth dilution method, Torulopsis glabrata; assay type: cell-based; conditions: Torulopsis glabrata; broth dilution method
Excerpt: as §5, §6, §7, §8, §9, §10

Cryptococcus neoformans [8] = experiment: MIC by impregnated disk method, Cryptococcus neoformans; assay type: cell-based
Protocol: as §1, §2, §11, §12, §13, §14, §15, §6

C. tropicalis [9] = experiment: MIC by impregnated disk method, Candida tropicalis; assay type: cell-based; conditions: C. tropicalis; disk method
Protocol: as §1, §2, §3, §4

Candida albicans [10] = experiment: MIC by broth dilution method, Candida albicans; assay type: cell-based
Excerpt: as §5, §6, §7, §8, §9, §10

C. parapsilosis [11] = experiment: MIC by impregnated disk method, Candida parapsilosis; assay type: cell-based
Protocol: as §1, §2, §11, §12, §13, §14, §15, §6

Candida albicans [12] = experiment: MIC by impregnated disk method, Candida albicans; assay type: cell-based
Protocol: as §1, §2, §11, §12, §13, §14, §15, §6

Geotrichum candidum [13] = experiment: MIC by broth dilution method, Geotrichum candidum; assay type: cell-based; conditions: broth dilution method
Excerpt: as §5, §6, §7, §8, §9, §10

Saccharomyces cerevisiae [14] = experiment: MIC by broth dilution method, Saccharomyces cerevisiae; assay type: cell-based
Excerpt: as §5, §6, §7, §8, §9, §10

Trichosporon sp. [15] = experiment: MIC by broth dilution method, Trichosporon sp.; assay type: cell-based; conditions: Trichosporon sp.; broth dilution method
Excerpt: as §5, §6, §7, §8, §9, §10

C. tropicalis [16] = experiment: MIC by broth dilution method, Candida tropicalis; assay type: cell-based; conditions: C. tropicalis; broth dilution method
Excerpt: as §5, §6, §7, §8, §9, §10

Trichosporon sp. [17] = experiment: MIC by impregnated disk method, Trichosporon sp.; assay type: cell-based; conditions: Trichosporon sp.; disk method
Protocol: as §1, §2, §3, §4

Candida albicans [18] = experiment: Susceptibility to combination of antifungal agents on disks (Example 2); assay type: cell-based; conditions: Candida albicans isolate; in combination with amphotericin B
Excerpt: (§16) The method of the present invention also may be used to test combinations of antifungal agents. In this method, more than one antifungal agent of known concentration is impregnated in each test disk.
(§17) Each disk is impregnated with a particular known concentration of at least one particular antifungal agent, except for the control disks. When the susceptibility of a fungus to combinations of antifungal agents is being tested, more than one antifungal agent is impregnated in each test disk.
(§18) The susceptibility of two other isolates to combinations of antifungal agents were tested by combining more than one antifungal agent on each test disk. A series of test disks were prepared containing various combinations of antifungal agents in various concentrations and were used in the method of the present invention. The results of this procedure are summarized in the following specific, non-limiting examples:
This is a significant reduction in amphotericin B.

Candida tropicalis = experiment: Susceptibility to combination of antifungal agents on disks (Example 3); assay type: cell-based; conditions: in combination with amphotericin B 0.05 μg/ml
Excerpt: as §16, §17, §18
An isolate of Candida tropicalis was initially tested for amphotericin B susceptibility of 0.5 μg/ml. When a combination of amphotericin B and tetracycline were combined on the disks used in the testing procedure according to the present invention, effective inhibition of the isolate occurred using 0.05 μg/ml of amphotericin B and 0.2 μg/ml of tetracycline.

[19] = Cryptococcus neoformans isolate 1
[20] = Saccharomyces cerevisiae isolate 1

Q: What does the source list for `C[C@@H]1[C@H](O)[C@@H](C)/C=C/C=C/CC/C=C/C=C/C=C/C=C/C(O[C@H]2O[C@H](C)[C@@H](O)[C@H](N)[C@@H]2O)CC2O[C@](O)(CC(O)C(O)CCC(O)CC(O)CC(O)CC(=O)O[C@H]1C)CC(O)C2C(=O)O` (stereo partly drawn) [Nystatin, nystatin]?
A: stability in acid ([1]; in the presence of acid): unstable in the presence of acid; thermal stability ([1]; upon incubation): subject to thermal destruction upon incubation; solubility in water ([1]; water): insoluble in water; Minimum Inhibitory Concentration, Disk (Geotrichum candidum [2]): 5.00 µg/mL; Minimum Inhibitory Concentration, Broth (Cryptococcus neoformans [3]; C. neoformans isolate 2): 3.00 µg/mL; Minimum Inhibitory Concentration, Broth (Cryptococcus neoformans [3]; [19]): 2.50 µg/mL; Minimum Inhibitory Concentration, Disk (Torulopsis glabrata [4]): 3.00 µg/mL; Minimum Inhibitory Concentration, Disk (Saccharomyces cerevisiae [5]; S. cerevisiae isolate 2): 1.00 µg/mL; Minimum Inhibitory Concentration, Disk (Saccharomyces cerevisiae [5]; [20]): 2.00 µg/mL; Minimum Inhibitory Concentration, Broth (C. parapsilosis [6]; C. parapsilosis isolate 1): 4.50 µg/mL; Minimum Inhibitory Concentration, Broth (C. parapsilosis [6]; C. parapsilosis isolate 2): 5.00 µg/mL; Minimum Inhibitory Concentration, Broth (Torulopsis glabrata [7]): 4.50 µg/mL; Minimum Inhibitory Concentration, Disk (Cryptococcus neoformans [8]; C. neoformans isolate 2): 3.00 µg/mL; Minimum Inhibitory Concentration, Disk (Cryptococcus neoformans [8]; [19]): 2.00 µg/mL; Minimum Inhibitory Concentration, Disk (C. tropicalis [9]): 5.50 µg/mL; Minimum Inhibitory Concentration, Broth (Candida albicans [10]; isolate 1): 1.50 µg/mL; Minimum Inhibitory Concentration, Broth (Candida albicans [10]; isolate 2): 5.00 µg/mL; Minimum Inhibitory Concentration, Broth (Candida albicans [10]; isolate 3): 1.50 µg/mL; Minimum Inhibitory Concentration, Broth (Candida albicans [10]; isolate 4): 3.50 µg/mL; Minimum Inhibitory Concentration, Broth (Candida albicans [10]; isolate 5): 4.00 µg/mL; Minimum Inhibitory Concentration, Broth (Candida albicans [10]; isolate 6): 6.00 µg/mL; Minimum Inhibitory Concentration, Broth (Candida albicans [10]; isolate 7): 0.20 µg/mL; Minimum Inhibitory Concentration, Disk (C. parapsilosis [11]; C. parapsilosis isolate 1): 3.50 µg/mL; Minimum Inhibitory Concentration, Disk (C. parapsilosis [11]; C. parapsilosis isolate 2): 4.50 µg/mL; Minimum Inhibitory Concentration, Disk (Candida albicans [12]; isolate 1): 1.50 µg/mL; Minimum Inhibitory Concentration, Disk (Candida albicans [12]; isolate 2): 4.50 µg/mL; Minimum Inhibitory Concentration, Disk (Candida albicans [12]; isolate 3): 1.50 µg/mL; Minimum Inhibitory Concentration, Disk (Candida albicans [12]; isolate 4): 3.50 µg/mL; Minimum Inhibitory Concentration, Disk (Candida albicans [12]; isolate 5): 4.00 µg/mL; Minimum Inhibitory Concentration, Disk (Candida albicans [12]; isolate 6): 6.50 µg/mL; Minimum Inhibitory Concentration, Disk (Candida albicans [12]; isolate 7): 0.30 µg/mL; Minimum Inhibitory Concentration, Broth (Geotrichum candidum [13]): 4.50 µg/mL; Minimum Inhibitory Concentration, Broth (Saccharomyces cerevisiae [14]; S. cerevisiae isolate 2): 2.00 µg/mL; Minimum Inhibitory Concentration, Broth (Saccharomyces cerevisiae [14]; [20]): 2.50 µg/mL; Minimum Inhibitory Concentration, Broth (Trichosporon sp. [15]): 3.00 µg/mL; Minimum Inhibitory Concentration, Broth (C. tropicalis [16]): 6.00 µg/mL; Minimum Inhibitory Concentration, Disk (Trichosporon sp. [17]): 3.50 µg/mL

Q: Which tetracycline susceptibility (Candida albicans [18]) does the source give for `CN(C)C1C(=O)C(C(N)=O)=C(O)C2(O)C(=O)C3=C(O)c4c(O)cccc4C(C)(O)C3CC12` (stereo not drawn) [tetracycline] here?
A: 0.1 µg/mL

Q: And the “effective inhibition of the isolate, concentration of tetracycline” value (Candida tropicalis)?
A: 0.2 µg/mL
